Data published in patent US20230148214A1, “INDAZOLES AND AZAINDAZOLES AS LRRK2 INHIBITORS” (ESCAPE Bio, Inc., priority 2020, published 2023).

Key:
LRRK2 G2019S = target: T1, LRRK2 G2019S (Homo sapiens, UniProt Q5S007, G2019S); assay: LRRK2 Kinase Activity Assay (LanthaScreen TR-FRET), G2019S; assay type: biochemical; details: recombinant G2019S-LRRK2, 25 μM ATP, 400 nM LRRKtide, 60 min; class symbols
T1 construct: purchased Life Technologies PV4881
Procedure: (§1) LRRK2 kinase activity was measured using a LanthaScreen™ Kinase Activity Assay from ThermoFisher Scientific. Recombinant wild type or G2019S-LRRK2 protein (Life Technologies, PR8604B or PV4881, respectively), was incubated with a fluorescein-labeled peptide substrate called LRRKtide that is based upon ezrin/radixin/moesin (ERM) (Life Technologies, PV4901) in the presence of ATP and serially diluted compound. […] Compound-dependent inhibition of the TR-FRET signal was used to generate a concentration-response curve for IC50 determination.
(§2) After 60 min incubation at room temperature, the reaction was stopped by addition of 10 μL of 2×stop solution containing a final concentration of 2 nM anti-pERM antibody and 10 mM EDTA.

LRRK2 WT = target: T2, LRRK2 WT (Homo sapiens, UniProt Q5S007); assay: LRRK2 Kinase Activity Assay (LanthaScreen TR-FRET), wild type; assay type: biochemical; details: recombinant wild type LRRK2, 25 μM ATP, 400 nM LRRKtide, 60 min; class symbols
T2 construct: purchased Life Technologies PR8604B
Procedure: as §1, §2

T1 sequence (Q5S007 whole entry G2019S): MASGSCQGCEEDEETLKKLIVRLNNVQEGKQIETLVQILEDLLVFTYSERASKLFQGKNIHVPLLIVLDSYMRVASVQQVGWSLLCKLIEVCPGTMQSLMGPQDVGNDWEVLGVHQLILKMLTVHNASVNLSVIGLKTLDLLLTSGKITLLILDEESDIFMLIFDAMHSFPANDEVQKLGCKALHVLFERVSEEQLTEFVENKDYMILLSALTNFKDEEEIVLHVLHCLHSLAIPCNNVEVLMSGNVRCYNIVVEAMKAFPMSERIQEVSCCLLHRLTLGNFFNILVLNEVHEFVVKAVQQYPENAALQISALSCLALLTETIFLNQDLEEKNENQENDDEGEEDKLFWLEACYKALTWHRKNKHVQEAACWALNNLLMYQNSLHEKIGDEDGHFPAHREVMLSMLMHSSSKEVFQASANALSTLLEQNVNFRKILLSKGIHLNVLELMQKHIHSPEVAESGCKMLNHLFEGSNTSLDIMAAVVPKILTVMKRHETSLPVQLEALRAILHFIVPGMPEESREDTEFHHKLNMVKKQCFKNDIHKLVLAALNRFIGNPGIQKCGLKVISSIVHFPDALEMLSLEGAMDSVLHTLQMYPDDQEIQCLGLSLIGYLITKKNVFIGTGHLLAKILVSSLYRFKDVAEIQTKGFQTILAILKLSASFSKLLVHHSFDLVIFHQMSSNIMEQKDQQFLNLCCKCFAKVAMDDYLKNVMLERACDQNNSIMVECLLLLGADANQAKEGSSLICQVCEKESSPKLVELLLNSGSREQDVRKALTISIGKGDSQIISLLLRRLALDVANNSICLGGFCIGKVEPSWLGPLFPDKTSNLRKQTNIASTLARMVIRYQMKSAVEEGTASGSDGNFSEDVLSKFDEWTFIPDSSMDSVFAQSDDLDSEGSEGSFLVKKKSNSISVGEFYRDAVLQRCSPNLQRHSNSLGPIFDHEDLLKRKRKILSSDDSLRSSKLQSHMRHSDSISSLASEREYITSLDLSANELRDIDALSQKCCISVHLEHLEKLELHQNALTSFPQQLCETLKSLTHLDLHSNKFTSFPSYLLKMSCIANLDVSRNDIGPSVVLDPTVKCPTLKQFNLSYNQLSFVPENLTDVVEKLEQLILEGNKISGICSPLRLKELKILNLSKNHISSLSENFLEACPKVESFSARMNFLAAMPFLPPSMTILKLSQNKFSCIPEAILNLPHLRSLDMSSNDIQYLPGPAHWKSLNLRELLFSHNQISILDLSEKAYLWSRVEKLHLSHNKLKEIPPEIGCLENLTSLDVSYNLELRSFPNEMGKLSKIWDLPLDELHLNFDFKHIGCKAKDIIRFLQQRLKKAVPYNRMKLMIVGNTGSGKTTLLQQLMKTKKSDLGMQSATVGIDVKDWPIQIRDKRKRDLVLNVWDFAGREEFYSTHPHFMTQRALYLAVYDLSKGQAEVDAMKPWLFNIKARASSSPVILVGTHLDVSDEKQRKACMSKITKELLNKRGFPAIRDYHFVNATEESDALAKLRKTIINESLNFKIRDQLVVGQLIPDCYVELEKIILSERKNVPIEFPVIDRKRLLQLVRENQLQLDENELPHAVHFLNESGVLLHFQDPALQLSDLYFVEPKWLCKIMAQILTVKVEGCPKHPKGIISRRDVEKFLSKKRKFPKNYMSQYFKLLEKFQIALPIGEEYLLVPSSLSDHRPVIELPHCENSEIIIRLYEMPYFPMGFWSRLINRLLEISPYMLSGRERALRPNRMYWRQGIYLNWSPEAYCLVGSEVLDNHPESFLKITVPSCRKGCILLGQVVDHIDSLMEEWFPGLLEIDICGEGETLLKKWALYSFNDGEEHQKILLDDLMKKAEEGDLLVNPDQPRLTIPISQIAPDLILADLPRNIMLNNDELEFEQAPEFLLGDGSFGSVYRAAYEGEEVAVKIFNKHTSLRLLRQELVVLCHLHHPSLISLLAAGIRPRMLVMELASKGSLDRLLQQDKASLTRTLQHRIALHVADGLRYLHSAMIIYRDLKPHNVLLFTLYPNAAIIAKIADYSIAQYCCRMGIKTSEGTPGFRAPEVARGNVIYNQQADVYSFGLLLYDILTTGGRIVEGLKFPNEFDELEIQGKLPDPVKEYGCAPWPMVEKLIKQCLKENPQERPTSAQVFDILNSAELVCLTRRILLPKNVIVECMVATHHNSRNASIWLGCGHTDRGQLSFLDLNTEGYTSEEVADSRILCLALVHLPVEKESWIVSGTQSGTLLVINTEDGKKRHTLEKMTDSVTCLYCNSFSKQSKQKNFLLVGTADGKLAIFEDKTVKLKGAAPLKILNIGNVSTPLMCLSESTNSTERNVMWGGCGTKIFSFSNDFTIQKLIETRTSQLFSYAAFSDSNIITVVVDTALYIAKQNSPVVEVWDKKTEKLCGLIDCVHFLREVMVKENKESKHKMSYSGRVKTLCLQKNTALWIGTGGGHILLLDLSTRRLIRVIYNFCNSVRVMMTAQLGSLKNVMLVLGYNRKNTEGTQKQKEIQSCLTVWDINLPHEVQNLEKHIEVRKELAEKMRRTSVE
T2 sequence (Q5S007 whole entry): as the sequence (Q5S007 whole entry G2019S) above, with S2019G counted along it

SMILES | IC50 (LRRK2 G2019S) | IC50 (LRRK2 WT)
C[C@H]1CCc2cc(C#N)ccc2[C@H]1Oc1ccc2[nH]nc(-c3cnco3)c2c1 (single isomer, unassigned) [175, enantiomer 1, cis-6-Methyl-5-[[3-(1,3-oxazol-5-yl)-1H-indazol-5-yl]oxy]-5,6,7,8-tetrahydronaphthalene-2-carbonitrile] | < 100 nM | 100 to 1000 nM
C[C@H]1CCc2cc(C#N)ccc2[C@H]1Oc1ccc2[nH]nc(-c3cnco3)c2c1 (single isomer, unassigned) [175, enantiomer 2, cis-6-Methyl-5-[[3-(1,3-oxazol-5-yl)-1H-indazol-5-yl]oxy]-5,6,7,8-tetrahydronaphthalene-2-carbonitrile] | < 100 nM | 100 to 1000 nM
C[C@@H]1CCc2cc(C#N)ccc2[C@H]1Oc1ccc2[nH]nc(-c3cnco3)c2c1 (single isomer, unassigned) [176, enantiomer 1, trans-6-Methyl-5-[[3-(1,3-oxazol-5-yl)-1H-indazol-5-yl]oxy]-5,6,7,8-tetrahydronaphthalene-2-carbonitrile] | < 100 nM | 100 to 1000 nM
C[C@@H]1CCc2cc(C#N)ccc2[C@H]1Oc1ccc2[nH]nc(-c3cnco3)c2c1 (single isomer, unassigned) [176, enantiomer 2, trans-6-Methyl-5-[[3-(1,3-oxazol-5-yl)-1H-indazol-5-yl]oxy]-5,6,7,8-tetrahydronaphthalene-2-carbonitrile] | < 100 nM | < 100 nM
N#Cc1cc2c(nc1Cl)[C@@H](Oc1ccc3[nH]nc(-c4cnco4)c3c1)CCC2 (single isomer, unassigned) [177, enantiomer 1, 2-Chloro-8-((3-(oxazol-5-yl)-1H-indazol-5-yl)oxy)-5,6,7,8-tetrahydroquinoline-3-carbonitrile] | < 100 nM | < 100 nM
N#Cc1cc2c(nc1Cl)[C@@H](Oc1ccc3[nH]nc(-c4cnoc4)c3c1)CCC2 (single isomer, unassigned) [178, enantiomer 1, 2-Chloro-8-[[3-(1,2-oxazol-4-yl)-1H-indazol-5-yl]oxy]-5,6,7,8-tetrahydroquinoline-3-carbonitrile] | < 100 nM | < 100 nM
COc1nc2c(cc1C#N)CCC[C@@H]2Oc1ccc2[nH]nc(-c3cnco3)c2c1 (single isomer, unassigned) [179, enantiomer 1, 2-Methoxy-8-[[3-(1,3-oxazol-5-yl)-1H-indazol-5-yl]oxy]-5,6,7,8-tetrahydroquinoline-3-carbonitrile] | < 100 nM | < 100 nM
COc1nc2c(cc1C#N)CCC[C@@H]2Oc1ccc2[nH]nc(-c3cnco3)c2c1 (single isomer, unassigned) [179, enantiomer 2, 2-Methoxy-8-[[3-(1,3-oxazol-5-yl)-1H-indazol-5-yl]oxy]-5,6,7,8-tetrahydroquinoline-3-carbonitrile] | 100 to 1000 nM | 100 to 1000 nM
N#Cc1cc2c(cc1F)[C@@H](Oc1ccc3[nH]nc(-c4cnco4)c3c1)CCC2 (single isomer, unassigned) [180, enantiomer 1, 3-Fluoro-5-[[3-(1,3-oxazol-5-yl)-1H-indazol-5-yl]oxy]-5,6,7,8-tetrahydronaphthalene-2-carbonitrile] | < 100 nM | < 100 nM
N#Cc1cc2c(nc1Cl)[C@@H](Oc1ccc3[nH]nc(C4CC4)c3c1)CCC2 (single isomer, unassigned) [181, enantiomer 1, 2-Chloro-8-[(3-cyclopropyl-1H-indazol-5-yl)oxy]-5,6,7,8-tetrahydroquinoline-3-carbonitrile] | < 100 nM | < 100 nM
N#Cc1ccc2c(c1)CC[C@@H]2Oc1ccc2[nH]nc(C3CC3)c2c1 (single isomer, unassigned) [Example 124, enantiomer 2, 1-((3-Cyclopropyl-1H-indazol-5-yl)oxy)-2,3-dihydro-1H-indene-5-carbonitrile] | 100 to 1000 nM | –
N#Cc1cnc2c(c1)CCC[C@@H]2Oc1ccc2[nH]nc(C3CC3)c2c1 (single isomer, unassigned) [Example 136, enantiomer 2, 8-((3-Cyclopropyl-1H-indazol-5-yl)oxy)-5,6,7,8-tetrahydroquinoline-3-carbonitrile] | 100 to 1000 nM | –
COc1c(C#N)cnc2c1CCC[C@@H]2Nc1ccc2[nH]nc(-c3cnco3)c2c1 (single isomer, unassigned) [Example 146, enantiomer 2, 4-Methoxy-8-((3-(oxazol-5-yl)-1H-indazol-5-yl)amino)-5,6,7,8-tetrahydroquinoline-3-carbonitrile] | – | < 100 nM
N#Cc1ccc2c(c1F)CC(F)(F)[C@@H]2Nc1ccc2[nH]nc(-c3cnco3)c2c1 (single isomer, unassigned) [Example 151, enantiomer 2, 2,2,4-Trifluoro-1-((3-(oxazol-5-yl)-1H-indazol-5-yl)amino)-2,3-dihydro-1H-indene-5-carbonitrile] | – | < 100 nM
N#Cc1ccc2c(c1)CCCC2Nc1ccc2[nH]nc(C(F)(F)F)c2c1 (single isomer, unassigned) [Example 153, enantiomer 2, 5-((3-(Trifluoromethyl)-1H-indazol-5-yl)amino)-5,6,7,8-tetrahydronaphthalene-2-carbonitrile] | 1000 to 10000 nM | –
COc1c(C#N)cnc2c1CC[C@@H]2Nc1ccc2[nH]nc(-c3cnco3)c2c1 (single isomer, unassigned) [Example 154, enantiomer 1, 4-Methoxy-7-((3-(oxazol-5-yl)-1H-indazol-5-yl)amino)-6,7-dihydro-5H-cyclopenta[b]pyridine-3-carbonitrile] | – | 100 to 1000 nM
Cc1ncc(-c2n[nH]c3ccc(N[C@@H]4c5ccc(C#N)cc5CC4(F)F)cc23)o1 (single isomer, unassigned) [Example 155, enantiomer 2, 2,2-Difluoro-1-((3-(2-methyloxazol-5-yl)-1H-indazol-5-yl)amino)-2,3-dihydro-1H-indene-5-carbonitrile] | – | < 100 nM
Cc1ncc(-c2n[nH]c3ccc(O[C@H]4CCc5c4ccc(C#N)c5F)cc23)o1 (single isomer, unassigned) [Example 156, enantiomer 2, 4-Fluoro-1-((3-(2-methyloxazol-5-yl)-1H-indazol-5-yl)oxy)-2,3-dihydro-1H-indene-5-carbonitrile] | – | < 100 nM
Cc1cc(-c2n[nH]c3ccc(N[C@H]4CCCc5cc(C#N)cnc54)cc23)sn1 (single isomer, unassigned) [Example 158, enantiomer 2, 8-((3-(3-Methylisothiazol-5-yl)-1H-indazol-5-yl)amino)-5,6,7,8-tetrahydroquinoline-3-carbonitrile] | – | < 100 nM
Cc1ncc(-c2n[nH]c3ccc(N[C@H]4CCCc5cc(C#N)c(C)nc54)cc23)o1 (single isomer, unassigned) [Example 159, enantiomer 2, 2-Methyl-8-((3-(2-methyloxazol-5-yl)-1H-indazol-5-yl)amino)-5,6,7,8-tetrahydroquinoline-3-carbonitrile] | – | < 100 nM
Cc1ncc(-c2n[nH]c3ccc(O[C@H]4CCc5cc(C#N)c(F)cc54)cc23)o1 (single isomer, unassigned) [Example 160, enantiomer 2, 6-Fluoro-1-((3-(2-methyloxazol-5-yl)-1H-indazol-5-yl)oxy)-2,3-dihydro-1H-indene-5-carbonitrile] | – | < 100 nM
N#Cc1cnc2c(n1)CCC[C@@H]2Oc1ccc2[nH]nc(-c3cnco3)c2c1 (single isomer, unassigned) [Example 163, enantiomer 2, 5-[[3-(1,3-Oxazol-5-yl)-1H-indazol-5-yl]oxy]-5,6,7,8-tetrahydroquinoxaline-2-carbonitrile] | – | < 100 nM
Cc1nc2c(c(C)c1C#N)CCC[C@@H]2Nc1ccc2[nH]nc(-c3cnco3)c2c1 (single isomer, unassigned) [Example 164, enantiomer 2, 2,4-Dimethyl-8-[[3-(1,3-oxazol-5-yl)-1H-indazol-5-yl]amino]-5,6,7,8-tetrahydroquinoline-3-carbonitrile] | – | < 100 nM
COc1nc2c(c(C)c1C#N)CCC[C@@H]2Nc1ccc2[nH]nc(-c3cnco3)c2c1 (single isomer, unassigned) [Example 165, enantiomer 2, 2-Methoxy-4-methyl-8-[[3-(1,3-oxazol-5-yl)-1H-indazol-5-yl]amino]-5,6,7,8-tetrahydroquinoline-3-carbonitrile] | – | < 100 nM
Cc1c(C#N)c(Cl)nc2c1CC[C@@H]2Oc1ccc2[nH]nc(-c3cnco3)c2c1 (single isomer, unassigned) [Example 166, enantiomer 2, 2-Chloro-4-methyl-7-[[3-(1,3-oxazol-5-yl)-1H-indazol-5-yl]oxy]-6,7-dihydro-5H-cyclopenta[b]pyridine-3-carbonitrile] | – | < 100 nM
N#Cc1c(F)cc2c(c1F)CC[C@@H]2Oc1ccc2[nH]nc(-c3cnco3)c2c1 (single isomer, unassigned) [Example 167, enantiomer 2, 4,6-Difluoro-1-[[3-(1,3-oxazol-5-yl)-1H-indazol-5-yl]oxy]-2,3-dihydro-1H-indene-5-carbonitrile] | – | < 100 nM
N#Cc1cc2c(nc1Cl)[C@@H](Oc1ccc3[nH]nc(-c4cnco4)c3c1)CC2 (single isomer, unassigned) [Example 171, enantiomer 2, 2-Chloro-7-[[3-(1,3-oxazol-5-yl)-1H-indazol-5-yl]oxy]-6,7-dihydro-5H-cyclopenta[b]pyridine-3-carbonitrile] | – | < 100 nM
